One block for each molecule: values may come before it.
Key:
E. coli = experiment: Cis PMD MIC/MBC determination, broth dilution and sub-culture; format: cell-based; design: key to bacterial growth: A “+” indicates bacterial growth; a “−” indicates that bacterial growth is prevented; conditions: for bacterial growth: overnight 37° C.
Description: MIC—minimum inhibitory concentration. This is the concentration of PMD which prevents bacterial growth. […] Thus, for E. Coli below, the minimum inhibitory concentration is 0.25% PMD in 1.25% ethanol.
MBC—minimum bactericidal concentration. This is the concentration of PMD which kills the bacteria. A “ ? ” indicates live bacteria are present.
Cis PMD was dissolved in Absolute Ethanol (0.2 g/ml) to give 20% solution. This was further diluted in water to give 10% in 50% EtOH. 200 μl was added to 0.8 ml Iso-sensitest broth to give a 2% solution in 10% EtOH. Serial 2-fold dilutions in ISB were then carried out and 20 μl E. coli (McFarlane 0.5) were added to each tube and incubated overnight at 37° C. After 18 hours, tubes showing no growth were sub-cultured.

[1] = Toxicity tests for regulatory authorities
Excerpt: PMD is the active ingredient in our MOSIGUARD™ insect repellant. We have conducted tests to show regulatory authorities that PMD is not toxic, and we have marketed our insect repellent for several years and there has been no report of any significant toxicity thereof. Potentially, therefore, the medical uses of PMD may be topical or systemic. Systemic administration may be by way of an oral dosage form or by a parenteral route, such as by intra-venous injection.

Solubility in water = format: physicochemical
Excerpt: A composition for use in accordance with the invention can comprise PMD and a carrier.

certain strains of MRSA = experiment: Tests against MRSA; format: cell-based, Staphylococcus aureus
Excerpt: In a further aspect, therefore, the invention provides the use of PMD against MRSA.

acne = experiment: Effect against acne
Excerpt: The etiology of acne is not completely understood, but, in some instances, it is believed that acne has a bacterial etiology.

S. aureus (oxford) = experiment: Cis PMD MIC/MBC determination, broth dilution and sub-culture; format: cell-based; design: key: A “+” indicates bacterial growth; a “−” indicates that bacterial growth is prevented; conditions: overnight 37° C.
P. aeruginosa = experiment: as above; format: cell-based; design: key: A “+” indicates bacterial growth; a “−” indicates that bacterial growth is prevented; conditions: overnight 37° C.
MRSA 15 = experiment: as above; format: cell-based, Staphylococcus aureus; design: key: A “+” indicates bacterial growth; a “−” indicates that bacterial growth is prevented; conditions: overnight 37° C.
MRSA 16 = experiment: as above; format: cell-based, Staphylococcus aureus; design: key: A “+” indicates bacterial growth; a “−” indicates that bacterial growth is prevented; conditions: overnight 37° C.
S. pyogenes = experiment: as above; format: cell-based; design: key: A “+” indicates bacterial growth; a “−” indicates that bacterial growth is prevented; conditions: overnight 37° C.

solubility in water (Solubility in water): poorly soluble
SMILES: C[C@H]1CC[C@H](C(C)(C)O)[C@H](O)C1 (racemic) [PMD, p-menthane-3,8-diol]
minimum inhibitory concentration (E. coli; in 1.25% ethanol): 0.25%
minimum bactericidal concentration (E. coli; in 2.5% ethanol): 0.5%
toxicity [1]: not toxic
effectiveness against MRSA (certain strains of MRSA): effective
effectiveness against acne (acne): effective

SMILES: CC1CCC(C(C)(C)O)C(O)C1 (stereo not drawn) [Cis PMD]
bacterial growth (E. coli; 0.06% PMD, 0.3% alcohol): +
bacterial growth (E. coli; 0.125% PMD, 0.6% alcohol): +
bacterial growth (E. coli; 0.25% PMD, 1.25% alcohol): −
bacterial growth (E. coli; 0.5% PMD, 2.5% alcohol): −
bacterial growth (E. coli; 1% PMD, 5% alcohol): −
bacterial growth (E. coli; 2% PMD, 10% alcohol): −
bacterial growth (S. aureus (oxford); 0.06% PMD, 0.3% alcohol): +
bacterial growth (S. aureus (oxford); 0.125% PMD, 0.6% alcohol): +
bacterial growth (S. aureus (oxford); 0.25% PMD, 1.25% alcohol): +
bacterial growth (S. aureus (oxford); 0.5% PMD, 2.5% alcohol): −
bacterial growth (S. aureus (oxford); 1% PMD, 5% alcohol): −
bacterial growth (S. aureus (oxford); 2% PMD, 10% alcohol): −
bacterial growth (P. aeruginosa; 0.06% PMD, 0.3% alcohol): +
bacterial growth (P. aeruginosa; 0.125% PMD, 0.6% alcohol): +
bacterial growth (P. aeruginosa; 0.25% PMD, 1.25% alcohol): +
bacterial growth (P. aeruginosa; 0.5% PMD, 2.5% alcohol): −
bacterial growth (P. aeruginosa; 1% PMD, 5% alcohol): −
bacterial growth (P. aeruginosa; 2% PMD, 10% alcohol): −
bacterial growth (MRSA 15; 0.06% PMD, 0.3% alcohol): +
bacterial growth (MRSA 15; 0.125% PMD, 0.6% alcohol): +
bacterial growth (MRSA 15; 0.25% PMD, 1.25% alcohol): +
bacterial growth (MRSA 15; 0.5% PMD, 2.5% alcohol): −
bacterial growth (MRSA 15; 2% PMD, 10% alcohol): −
bacterial growth (MRSA 16; 0.06% PMD, 0.3% alcohol): +
bacterial growth (MRSA 16; 0.125% PMD, 0.6% alcohol): +
bacterial growth (MRSA 16; 0.25% PMD, 1.25% alcohol): +
bacterial growth (MRSA 16; 0.5% PMD, 2.5% alcohol): −
bacterial growth (MRSA 16; 1% PMD, 5% alcohol): −
bacterial growth (MRSA 16; 2% PMD, 10% alcohol): −
bacterial growth (S. pyogenes; 0.06% PMD, 0.3% alcohol): +
bacterial growth (S. pyogenes; 0.125% PMD, 0.6% alcohol): +
bacterial growth (S. pyogenes; 0.25% PMD, 1.25% alcohol): −
bacterial growth (S. pyogenes; 0.5% PMD, 2.5% alcohol): −
bacterial growth (S. pyogenes; 1% PMD, 5% alcohol): −
bacterial growth (S. pyogenes; 2% PMD, 10% alcohol): −

From patent US7396547B2, “Antiseptic composition” (priority 1999, dated 2008)
